Test results reported in patent US9133167B2, “Antibacterial quinoline derivatives” (JANSSEN PHARMACEUTICA NV, priority 2012, dated 2015).
Converted amounts (≈) assume the structure as drawn. “And” between values parts separate entries of the source, which are not always exact repeats. Equal entries are not always repeated.

Experiments:
[1] = system: Staphylococcus aureus (ATCC29213); assay: Microtitre plate assay, IC90 for bacterial growth, Staphylococcus aureus strain; assay type: cell-based; conditions: 90% inhibitory concentration for bacterial growth, 24 hours at 37° C., read-out: IC90 (μg/ml) STA B29213
Description: D.2. In-Vitro Method for Testing Compounds for Anti-Bacterial Activity Against a Non-Mycobacterial Strain
Preparation of Bacterial Suspensions for Susceptibility Testing:
The bacteria used in this study were grown overnight in flasks containing 100 ml Mueller-Hinton Broth (Becton Dickinson—cat. no. 275730) in sterile de-ionized water, with shaking, at 37° C. Stocks (0.5 ml/tube) were stored at −70° C. until use. Bacteria titrations were performed in microtiter plates to detect the TCID50, in which TCID50 represents the dilution that gives rise to bacterial growth in 50% of inoculated cultures. In general, an inoculum level of approximately 100 TCID50 was used for susceptibility testing.
Anti Bacterial Susceptibility Testing: IC90 Determination
Flat-bottom, sterile 96-well plastic microtiter plates were filled with 180 μl of sterile deionized water, supplemented with 0.25% BSA. Subsequently, stock solutions (7.8× final test concentration) of compounds were added in 45 μl volumes in column 2 Serial five-fold dilutions (45 μl in 180 μl) were made directly in the microtiter plates from column 2 to reach column 11. Untreated control samples with (column 1) and without (column 12) inoculum were included in each microtiter plate. Depending on the bacteria type, approximately 10 to 60 CFU per well of bacteria inoculum (100 TCID50), in a volume of 100 μl in 2.8× Mueller-Hinton broth medium, was added to the rows A to H, except column 12. The same volume of broth medium without inoculum was added to column 12 in row A to H. The cultures were incubated at 37° C. for 24 hours under a normal atmosphere (incubator with open air valve and continuous ventilation). At the end of incubation, one day after inoculation, the bacterial growth was quantitated fluorometrically. Therefore resazurin (0.6 mg/ml) was added in a volume of 20 μl to all wells 3 hours after inoculation, and the plates were re-incubated overnight. A change in colour from blue to pink indicated the growth of bacteria. The fluorescence was read in a computer-controlled fluorometer (Cytofluor Biosearch) at an excitation wavelength of 530 nm and an emission wavelength of 590 nm. The % growth inhibition achieved by the compounds was calculated according to standard methods. The IC90 (expressed in μg/ml) was defined as the 90% inhibitory concentration for bacterial growth. The results are shown in Table 7 for an assay using a Staphylococcus aureus strain.

[2] = system: Mycobacterium smegmatis (ATCC607); assay: In-vitro anti-bacterial activity against strain M. smegmatis ATCC607 (Alamar Blue growth inhibition); assay type: cell-based; conditions: Mycolicibacterium smegmatis, 90% inhibitory concentration for bacterial growth, 48 hours at 37° C., read-out: IC90 (μg/ml) MSM 607
Description: D.1. In-Vitro Method for Testing Compounds for Anti-Bacterial Activity Against Strain M. Smegmatis ATCC607.
Flat-bottom, sterile 96-well plastic microtiter plates were filled with 180 μl of sterile deionized water, supplemented with 0.25% BSA. Subsequently, stock solutions (7.8× final test concentration) of compounds were added in 45 μl volumes to a series of duplicate wells in column 2 so as to allow evaluation of their effects on bacterial growth. Serial five-fold dilutions (45 μl in 180 μl) were made directly in the microtiter plates from column 2 to 11 using a customised robot system (Zymark Corp., Hopkinton, Mass.). Pipette tips were changed after every 3 dilutions to minimize pipetting errors with high hydrophobic compounds. Untreated control samples with (column 1) and without (column 12) inoculum were included in each microtiter plate. Approximately 250 CFU per well of bacteria inoculum, in a volume of 100 in 2.8× Mueller-Hinton broth medium, was added to the rows A to H, except column 12. The same volume of broth medium without inoculum was added to column 12 in row A to H. The cultures were incubated at 37° C. for 48 hours in a humidified 5% CO2 atmosphere (incubator with open air valve and continuous ventilation). At the end of incubation, two days after inoculation, the bacterial growth was quantitated fluorometrically. Therefore Alamar Blue (10×) was added to all wells in a volume of 20 and plates were incubated for another 2 hours at […]
The fluorescence was read in a computer-controlled fluorometer (Cytofluor, Biosearch) at an excitation wavelength of 530 nm and an emission wavelength of 590 nm (gain 30). The percentage growth inhibition achieved by the compounds was calculated according to standard methods and expressed as IC90 […] which defines the 90% inhibitory concentration for bacterial growth.

## CCn1c(=O)c(C(c2ccc(Cl)cc2)C2(O)CCN(Cc3ccccc3)CC2)cc2cc(Br)ccc21 (centres unmarked) [Compound 2]
[1]
  IC90: 11.3 µg/mL (≈ 19.9 µM)
[2]
  IC90: 3.57 µg/mL (≈ 6.31 µM)
other
  melting point: 212 °C

## CCn1c(=O)c(C(c2ccc(Cl)cc2)C2(O)CCN(Cc3ccccc3)CC2)cc2cc(-c3cccnc3)ccc21 (centres unmarked) [Compound 3]
[1]
  IC90: 7.1 µg/mL (≈ 12.6 µM)
[2]
  IC90: 3.56 µg/mL (≈ 6.31 µM)
other
  melting point: 172 °C

## COc1nc2ccc(Br)cc2cc1C(c1ccc(SC)cc1)C1(O)CCNCC1 (centres unmarked) [Compound 9]
[1]
  IC90: 7.58 µg/mL (≈ 16 µM)
[2]
  IC90: 4.78 µg/mL (≈ 10.1 µM)
other
  melting point: 204 °C

## COc1nc2ccc(Br)cc2cc1C(c1ccc(Cl)cc1)C1(O)CCN(C)CC1 (centres unmarked) [Compound 16]
[1]
  IC90: 5.99 µg/mL (≈ 12.6 µM)
[2]
  IC90: 2.39 µg/mL (≈ 5.02 µM)
other
  melting point: 193 °C

## COc1nc2ccc(Br)cc2cc1C(c1ccc(Cl)cc1)C1(O)CCN(Cc2cccc(F)c2)CC1 (centres unmarked) [Compound 17]
[1]
  IC90: 14.3 µg/mL (≈ 25.1 µM)
[2]
  IC90: 14.3 µg/mL (≈ 25.1 µM)
other
  melting point: 220 °C

## COc1nc2ccc(CO)cc2cc1C(c1ccc(Cl)cc1)C1(O)CCN(Cc2ccccc2)CC1 (centres unmarked) [Compound 22]
[1]
  IC90: > 16.3 µg/mL
[2]
  IC90: 16.3 µg/mL (≈ 32.4 µM)
other
  melting point: 196 °C

## COc1nc2ccc(C(=O)Nc3cccnc3)cc2cc1C(c1ccc(Cl)cc1)C1(O)CCN(Cc2ccccc2)CC1 (centres unmarked) [Compound 24]
[1]
  IC90: 8.38 µg/mL (≈ 14.1 µM)
[2]
  IC90: 7.47 µg/mL (≈ 12.6 µM)
other
  melting point: 146 °C

## COc1nc2ccc(Br)cc2cc1C(c1ccc(Cl)cc1)C1(O)CCN(C(=N)N)CC1 (centres unmarked) [Compound 25]
[1]
  IC90: 1.59 µg/mL (≈ 3.16 µM)
[2]
  IC90: 6.34 µg/mL (≈ 12.6 µM)
other
  melting point: > 250 °C

## O=c1[nH]c2ccc(-c3cccnc3)cc2cc1C(c1ccc(Cl)cc1)C1(O)CCNCC1 (centres unmarked) [Compound 26]
[1]
  IC90: > 30.9 µg/mL
[2]
  IC90: 3.09 µg/mL (≈ 6.93 µM)
other
  melting point: > 250 °C and 250 °C

## O=c1[nH]c2ccc(Br)cc2cc1C(c1ccc2ccccc2c1)C1(O)CCN(Cc2ccccc2)CC1 (centres unmarked) [Compound 80]
[1]
  IC90: 4.4 µg/mL (≈ 7.95 µM)
other
  melting point: 249 °C
